Reference: patent publication US20110136751A1, “Use of Polyphenols in the Treatment of Cancer” (Green Molecular, priority 2009, published 2011)

How the values were obtained:
Assay in all cases: IC50 on cell viability, Cell Counting Kit-8
Type in all cases: cell-based
A-172 = settings: Homo sapiens; code 12, A-172, Brain Gliblastoma; cell viability 120 h after administration
Experimental: (§1) A panel of 36 human cell lines were first tested in terms of population doubling time and growth curves to determine the conditions for further assays. The cells were also tested to determine the dose of radiation that produces 50% cell viability (D50). […] Cell viability was determined 120 h after the administration of the compounds using the Cell Counting Kit-8 (Dojindo Molecular Technologies, Inc, Rockville, Md.). In the experiments, 0.1% SDS and 1% DMSO were used as positive and negative controls, respectively. Final concentrations of the compounds used in the experiments are listed below in Table 5: […]

A-204 = settings: Homo sapiens, A204; code 35, A-204, Muscle Rhabdomyosarcoma; cell viability 120 h after administration
Experimental: as §1

A-673 = settings: Homo sapiens, A673; code 36, A-673, Muscle Rhabdomyosarcoma; cell viability 120 h after administration
Experimental: as §1

A375 = settings: Homo sapiens, A-375; code 23, A375, Skin Melanoma; cell viability 120 h after administration
Experimental: as §1

A549 = settings: Homo sapiens; code 22, A549, Lung Carcinoma; cell viability 120 h after administration
Experimental: as §1

BT-20 = settings: Homo sapiens; code 1, BT-20, Breast Carcinoma; cell viability 120 h after administration
Experimental: as §1

C32 = settings: Homo sapiens; code 24, C32, Skin Melanoma; cell viability 120 h after administration
Experimental: as §1

CHP-126 = settings: Homo sapiens; code 14, CHP-126, Brain Neuroblastoma; cell viability 120 h after administration
Experimental: as §1

Colo 201 = settings: Homo sapiens; code 5, Colo 201, Colorectal Adenocarcinoma; cell viability 120 h after administration
Experimental: as §1

HBL-52 = settings: Homo sapiens; code 19, HBL-52, Brain Meningioma; cell viability 120 h after administration
Experimental: as §1

HCT-15 = settings: Homo sapiens; code 7, HCT-15, Colorectal Adenocarcinoma; cell viability 120 h after administration
Experimental: as §1

HPAF-II = settings: Homo sapiens; code 32, HPAF-II, Pancreas Adenocarcinoma; cell viability 120 h after administration
Experimental: as §1

IMR-32 = settings: Homo sapiens; code 15, IMR-32, Brain Neuroblastoma; cell viability 120 h after administration
Experimental: as §1

LN-18 = settings: Homo sapiens; code 10, LN-18, Brain Gliblastoma; cell viability 120 h after administration
Experimental: as §1

LN229 = settings: Homo sapiens, LN-229; code 11, LN229, Brain Gliblastoma; cell viability 120 h after administration
Experimental: as §1

MCF-7 = settings: Homo sapiens, MCF7; code 2, MCF-7, Breast Adenocarcinoma; cell viability 120 h after administration
Experimental: as §1

MDA-MB-231 = settings: Homo sapiens; code 3, MDA-MB-231, Breast Adenocarcinoma; cell viability 120 h after administration
Experimental: as §1

MML-1 = settings: Homo sapiens; code 27, MML-1, Skin Melanoma; cell viability 120 h after administration
Experimental: as §1

MNNG-HOS = settings: Homo sapiens; code 29, MNNG-HOS, Bone Osteosarcoma; cell viability 120 h after administration
Experimental: as §1

MSTO-211H = settings: Homo sapiens; code 21, MSTO-211H, Lung Biphasic Mesothelioma; cell viability 120 h after administration
Experimental: as §1

NCI-H4BO = settings: Homo sapiens; code 20, NCI-H4BO, Lung Carcinoma; cell viability 120 h after administration
Experimental: as §1

Panc 10 05 = settings: Homo sapiens, Panc1005; code 33, Panc 10 05, Pancreas Adenocarcinoma; cell viability 120 h after administration
Experimental: as §1

Panc-1 = settings: Homo sapiens; code 34, Panc-1, Pancreas Carcinoma Epithiloid; cell viability 120 h after administration
Experimental: as §1

SH-SY5Y = settings: Homo sapiens; code 16, SH-SY5Y, Brain Neuroblastoma; cell viability 120 h after administration
Experimental: as §1

SK-ES-1 = settings: Homo sapiens, SK-ES1; code 30, SK-ES-1, Bone Osteosarcoma; cell viability 120 h after administration
Experimental: as §1

SK-N-AS = settings: Homo sapiens; code 17, SK-N-AS, Brain Neuroblastoma; cell viability 120 h after administration
Experimental: as §1

SW-872 = settings: Homo sapiens, SW872; code 18, SW-872, Connective tissue Fibrosarcoma; cell viability 120 h after administration
Experimental: as §1

T-47D = settings: Homo sapiens, T47D; code 4, T-47D, Breast Carcinoma; cell viability 120 h after administration
Experimental: as §1

U-38 MG = settings: Homo sapiens; code 13, U-38 MG, Brain Gliblastoma/astrocitoma; cell viability 120 h after administration
Experimental: as §1

| SMILES | IC50 (A-172) | IC50 (A-204) | IC50 (A-673) | IC50 (A375) | IC50 (A549) | IC50 (BT-20) | IC50 (C32) | IC50 (CHP-126) | IC50 (Colo 201) | IC50 (HBL-52) | IC50 (HCT-15) | IC50 (HPAF-II) | IC50 (IMR-32) | IC50 (LN-18) | IC50 (LN229) | IC50 (MCF-7) | IC50 (MDA-MB-231) | IC50 (MML-1) | IC50 (MNNG-HOS) | IC50 (MSTO-211H) | further results |
| --- | --- | --- | --- | --- | --- | --- | --- | --- | --- | --- | --- | --- | --- | --- | --- | --- | --- | --- | --- | --- | --- |
| O=c1c(O)c(-c2ccc(O)c(O)c2)oc2cc(O)cc(O)c12 [QUER, quercetin] | 10 µM | 18.1 µM | 4.09 µM | 19.6 µM | 13.4 µM | 9.21 µM | 22.1 µM | 19.1 µM | 18.1 µM | 22.8 µM | 12.4 µM | 20.2 µM | 20.2 µM | 9.72 µM | 8.12 µM | 19.7 µM | 20.7 µM | 10.8 µM | 9.91 µM | 19.8 µM | IC50 (NCI-H4BO): 10.1 µM; IC50 (Panc 10 05): 23 µM; IC50 (Panc-1): 62.5 µM; IC50 (SH-SY5Y): 4.38 µM; IC50 (SK-ES-1): 8.2 µM; IC50 (SK-N-AS): 19.8 µM; IC50 (SW-872): 3.51 µM; IC50 (T-47D): 10.7 µM; IC50 (U-38 MG): 4.83 µM |
| Oc1ccc(/C=C/c2cc(O)cc(O)c2)cc1 [RI, trans-3,5,4′-trihydroxystilbene, reference compound] | 47.6 µM | 19 µM | 6.73 µM | 24.9 µM | 16.3 µM | 66 µM | 18.5 µM | 26.7 µM | 37.4 µM | 29.1 µM | > 100 µM | 86.1 µM | 43 µM | 28.4 µM | 11.2 µM | 49.9 µM | 15.1 µM | 10.3 µM | 11.7 µM | 6.37 µM | IC50 (NCI-H4BO): 11.5 µM; IC50 (Panc 10 05): 24.2 µM; IC50 (Panc-1): 33 µM; IC50 (SH-SY5Y): 26.1 µM; IC50 (SK-ES-1): 27.2 µM; IC50 (SK-N-AS): 68.3 µM; IC50 (SW-872): 81.1 µM; IC50 (T-47D): 25.6 µM; IC50 (U-38 MG): 6.29 µM |
| COc1cc(/C=C/c2ccc(O)cc2)cc(OC)c1 [t-PTER, trans-3,5-dimethoxy-4′-hydroxystilbene] | 29.7 µM | 23.4 µM | 5.8 µM | 75.3 µM | 25.8 µM | 96.9 µM | 30.2 µM | 1.42 µM | 29.8 µM | 33.2 µM | 49.5 µM | 55.6 µM | 42.8 µM | 18.1 µM | 14.3 µM | 39.4 µM | 62.8 µM | 16.9 µM | 12.3 µM | 12.3 µM | IC50 (NCI-H4BO): 16.6 µM; IC50 (Panc 10 05): 46.3 µM; IC50 (Panc-1): 50.1 µM; IC50 (SH-SY5Y): 31.7 µM; IC50 (SK-ES-1): 42.7 µM; IC50 (SK-N-AS): 29.1 µM; IC50 (SW-872): 25.8 µM; IC50 (T-47D): 35 µM; IC50 (U-38 MG): 29.7 µM |
